Key:
[1] = test system: PC-3 cells; assay: Cell proliferation assay (BrdU incorporation); format: cell-based; conditions: Homo sapiens, serum-free, 0.6 μM, relative to vehicle control (1 unit), 18 h + 6 h BrdU, read-out: Units of BrdU incorporation
Procedure: PC-3 cancer cell lines were propagated in D-MEM (Gibco 21885) supplemented with 10% Foetal calf serum. 15000 cells per well were seeded in 96 well plates and incubated overnight. The culture media was changed to serum-free D-MEM for 24 h. The culture media was then changed to serum free D-MEM containing either 0.2% DMSO as vehicle control or 0.3, 0.6, 1.2 or 2.5 μM (or 1.25, 2.5, 5, 10 μM (as indicated in Table 1 below)) of the selected compounds of Example 1 to Example 8 in 0.2% DMSO in quadruplicate. After 18 h incubation, BrdU was added according to manufacturer's recommendations. After 6 h incubation in the presence of BrdU, the culture media was removed and BrdU incorporation was measured using “Cell Proliferation ELISA, BrdU colorimetric” Roche (11647229001) according to manufacturer's recommendations.
Proliferation rate of PC-3 cells are reduced by relevant concentrations of the test compounds as measured by BrdU incorporation.

[2] = test system: AMPK; assay: Activation of AMPK: Western blot of AMPK (Thr172) phosphorylation in PC3 cells; format: cell-based, human; conditions: PC3 cells starved 24 h serum-free; 0.3, 0.6, 1.2 and 2.5 μM for 4 h
Procedure: After starvation of PC3 cells in serum-free medium for 24 h, 0.3, 0.6, 1.2 and 2.5 μM of the compound of Example 1 or the compound of Example 2c was added and incubated for an additional 4 h. The Figure provides representative immunoblots of AMPK phosphorylation by the compound of Example 1 or the compound of Example 2c.
After starvation of PC3 cells in serum-free medium for 16 h, 1 and 5 μM of the selected compounds were added and incubated for an additional 4 h. The Figure provides representative immunoblots of the total level of AMPK (Pan-AMPK) and the level of AMPK and acetyl-CoA carboxylase phosphorylation by the selected compounds of the examples. The selected compounds of the examples stimulate AMPK phosphorylation in PC3 cells and induce the phosphorylation of acetyl-CoA carboxylase.
Selected compounds of Examples 1, 4 to 6 and 8 were prepared. A stock solution of […] was prepared by dissolving the compound in 100% DMSO.
Human PC3 cells were purchased from LGC Promochem-ATCC (ATCC catalog no CRL-1435). […]
PC3 cells were lysed in buffer (100 mM TRIS pH 6.8, 2% w/v Sodium dodecylsulfate (SDS), 10 mM NaF, 10 mM 3-glycerophosphate, 1 mM Na Vanadate). […] Protein concentrations of the lysates were measured using a BCA protein assay kit (Pierce #23225). […]

[3] = target: T1, PP2C-α1 (Homo sapiens, UniProt P35813); assay: Dephosphorylation of PP2C assay (PP2C-α1 mediated dephosphorylation of AMPK trimer); format: biochemical; conditions: 2.5, 5 and 10 μM; AMPK trimer α1/β1/γ1, 20 min, 30° C.
T1 construct: purchased Abcam (PP2C-α1); Invitrogen (AMPK trimer) Ab51205; PV4672
T1 sequence (P35813 1-382): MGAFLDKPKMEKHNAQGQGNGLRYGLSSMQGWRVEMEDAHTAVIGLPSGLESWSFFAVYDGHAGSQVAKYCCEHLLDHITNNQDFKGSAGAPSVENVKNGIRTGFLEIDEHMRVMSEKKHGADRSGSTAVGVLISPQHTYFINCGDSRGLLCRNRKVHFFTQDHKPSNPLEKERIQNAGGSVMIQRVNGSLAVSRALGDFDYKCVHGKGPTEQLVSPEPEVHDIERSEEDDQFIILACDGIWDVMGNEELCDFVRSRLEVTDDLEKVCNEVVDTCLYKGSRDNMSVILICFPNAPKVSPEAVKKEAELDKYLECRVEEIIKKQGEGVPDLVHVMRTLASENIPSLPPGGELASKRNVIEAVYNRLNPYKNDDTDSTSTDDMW
Procedure: The compounds were tested in the assay at concentrations of 2.5, 5 and 10 μM (as depicted in the figure).
Hyperphosphosporylated AMPK trimer 10 (ng) (α1/β1/γ1) from Invitrogen (PV4672) was incubated in a buffer containing: 40 mM Hepes pH 7.45, 2 mM MnCl2, 0.5 mM DTT and 0.125 ng recombinant PP2C-α1 (Abcam Ab51205) in the presence or absence of potential inhibitors of the interaction/enzymatic reaction in at total volume of 10 μL for 20 minutes in 30° C. The reaction was terminated by addition of 40 μL stop solution containing 1% Bovine Serum Albumin (BSA), 10 mM EDTA and anti Phospho-AMPKα (Thr172) Antibody (cell signaling #2531) at a dilution of 1/1000. The samples were transferred to glutathione coated 96 well plated (Pierce #15140) and incubated O/N at +4° C. The plate was washed 3×200 μL in PBS/0.05% Triton X-100. The plate was incubated with PBS/1% BSA and horse radish peroxidase conjugated goat-anti rabbit antibody (Jackson immunoresearch Laboratories Inc. #111-035-003) at a dilution of 1/10 000 for 2 h in room temperature. The plate was washed 3×200 μL in PBS/0.05% Triton X-100. The assay was developed by addition of 100 μL Liquid Substrate System for ELISA (Sigma, T0440) for 5-30 min. The developing reaction was terminated by addition of 25 μL […]. Absorbance was measured at 450 nm, where absorbance correlates to amount p-T172 AMPK.

SMILES	activity at 0.6 µM [1]	AMPK phosphorylation (immunoblot, FIG. 1) [2]	PP2C-α1 mediated dephosphorylation of AMPK (FIG. 3) [3]
O=c1[nH]s/c(=N\c2ccc(Cl)c(Cl)c2)n1Cc1cccc(C(F)(F)F)c1 [Example 1, 5-(3,4-dichlorophenyl)imino-4-[[3-(trifluoromethyl)phenyl]methyl]-1,2,4-thiadiazolidin-3-one]	39%	stimulates AMPK phosphorylation	reduce PP2C-α1 mediated dephosphorylation of AMPK
O=c1[nH]s/c(=N\c2ccc(Cl)c(Cl)c2)n1Cc1ccc(F)c(F)c1 [Example 2c, 5-(3,4-dichlorophenyl)imino-4-[(3,4-difluorophenyl)methyl]-1,2,4-thiadiazolidin-3-one]	34%	stimulates AMPK phosphorylation	reduce PP2C-α1 mediated dephosphorylation of AMPK
